{"source": "patent US9707283B2", "about": "“Genetically modified babesia parasites expressing protective tick antigens and uses thereof” (The United States of America as represented by the …, priority 2007, dated 2017)", "key": {"[1]": {"test_system": "B. bovis control parasites transfected with pBS", "test": "Growth curves of mock pBS-transfected control parasites with blasticidin", "type": "cell-based, Babesia bovis", "settings": "blasticidin at 6.4 μg/ml", "protocol": "(§1) Growth characteristics of the blasticidin selected parasite line 1-2-124 were examined and compared with mock pBS-transfected control parasites in the presence or absence of 6.4 μg/ml blasticidin. […] In addition, no differences were observed between growth rates of parasite cell line 1-2-124 and control parasites in the absence of blasticidin."}, "[2]": {"test_system": "B. bovis transfected parasite line 1-2-124 (gfp-bsd)", "test": "Growth curves of blasticidin selected parasite line 1-2-124 with blasticidin", "type": "cell-based, Babesia bovis", "settings": "blasticidin at 6.4 μg/ml, 10 times higher than used for original selection", "protocol": "as §1"}, "[3]": {"test_system": "B. bovis Mo7 strain", "test": "Blasticidin inhibition of B. bovis growth in in vitro cultures", "type": "cell-based, Babesia bovis", "protocol": "B. bovis parasites of the Mo7 strain were cultured in ˜1 ml cultures in 24 well plates containing 10% bovine red blood cells. Triplicate wells were cultured with or without increasing amounts of blasticidin added to the culture media at […], 2.4, and 4.8 μg/ml, prepared from a 5 mg/ml stock solution of blasticidin (Invitrogen) in sterile water, for three consecutive days. Culture media was replaced daily. The percentage of parasitized erythrocytes (ppe) was estimated by microscopic counting of Diff-Quik (Dade Behring) stained slides as described (Suarez and McElwain, (2008) Exp Parasitol. 118: 498-504). Percentage B. bovis inhibition was calculated by dividing the mean ppe in triplicate blasticidin treated wells by the mean ppe in triplicate control wells grown in the absence of blasticidin, and multiplying by 100.\nTo determine whether B. bovis growth could be inhibited with blasticidin, and to estimate the concentration of blasticidin appropriate for establishing a blasticidin/blasticidin deaminase (bsd) transfection system, B. bovis Mo7 strain parasites were cultured in the presence of varying concentrations of blasticidin ranging from 0 to 5 μg/ml in triplicate wells. The percentage of parasitized erythrocytes (ppe) in each well was determined for the first three days after splitting the cultures in each well to a starting ppe of 0.5%. […] Subsequent stable transfection experiments were performed using either 0.3 or 0.6 μg/ml, blasticidin."}, "[4]": {"test_system": "Plasmodium falciparum parasites", "settings": "calculated for Plasmodium falciparum parasites, given for comparison; cited from earlier work"}}}
{"molecule": "CN(CC[C@H](N)CC(=O)N[C@H]1C=C[C@H](n2ccc(N)nc2=O)O[C@@H]1C(=O)O)C(=N)N", "note": "[blasticidin]", "values": [{"measurement": "parasite growth in the presence of blasticidin", "setting": "[1]", "value": "not able to grow"}, {"measurement": "parasite growth with or without blasticidin", "setting": "[2]", "value": "able to grow at similar rates"}, {"measurement": "50% inhibitory concentration of blasticidin (IC50)", "setting": "[3]; Mo7 strain, in vitro culture, after three days of drug selection, percentage of parasitized erythrocytes", "value": "~0.4", "unit": "µg/mL"}, {"measurement": "concentration of blasticidin resulting in negligible parasite growth", "setting": "[3]; Mo7 strain, in vitro culture, three days", "value": "0.64 to 1.25", "unit": "µg/mL"}, {"measurement": "infected erythrocytes in stained slides", "setting": "[3]; blasticidin dose of 5 μg/ml, after three days in culture", "value": "No B. bovis infected erythrocytes could be detected"}, {"measurement": "IC50", "setting": "[4]", "value": 0.35, "unit": "µg/mL"}]}
